{"source": "patent US20120323022A1", "about": "“(2'S)-COLUMBIANETIN ISOLATED FROM CORYDALIS HETEROCARPA AND COMPOSITION CONTAINING THE SAME” (priority 2011, published 2012)", "assay_type_in_all_cases": "cell-based, Human", "key": {"[1]": {"test_system": "HaCaT cells", "assay": "MTT assay, viability of UVB-exposed keratinocyte cells", "conditions": "UVB 40 mJ/cm^2, incubation 24 h, compared with only UVB-exposed cells, FIG. 2A", "description": "(§1) Human keratinocyte (HaCaT, Korean Cell Line Bank, Seoul, Korea) cells were grown in Dulbecco's modified Eagle medium (DMEM, Gibco-BRL, Gaithersbrug, Md., USA) containing 10% fetal bovine serum (FBS), 2 mM glutamine and 100 μg/mL penicillin-streptomycin (Gibco-BRL, Gaithersbrug, Md., USA) at 37° C. humidified atmosphere of 5% CO2. Cells were sub-cultured to about 90-95% confluence by detaching with trypsin-EDTA solution.\nThe viability levels of keratinocyte cells were determined by the ability of mitochondria to convert 3-(4,5-dimethylthiazol-2-yl)-2,5-diphenyl tetrazolium bromide (MTT) to insoluble formazan product. Briefly, cells were grown in 96-well plates at a density of 1×10^4 cells/well. After incubation for 24 h, the cells were stimulated by UVB irradiation (40 mJ/cm^2) and incubated for 24 h in the absence or presence of (2′S)-columbianetin at 37° C. under a humidified atmosphere of 5% CO2. The supernatant medium was removed and 100 μL of 1 mg/mL MTT reagent was added to each well, followed by incubation for 4 h. After removal of unconverted MTT, the amount of formazan in the cells was determined by adding DMSO (dimethyl sulfoxide) to wells and measuring optical density (OD) at 540 nm using a microplate reader (Tacan Austria GmbH, Salzburg, Austria). Relative cell viability was calculated as the percentage of viability of untreated cells that were considered the control. […]"}, "[2]": {"test_system": "HaCaT cells", "assay": "LDH release assay, cell injury of UVB-exposed cells", "conditions": "UVB 40 mJ/cm^2, incubation 24 h, FIG. 2B", "description": "as §1\nCell injury was measured by quantifying the amount of lactate dehydrogenase (LDH)-release using a commercial LDH cytotoxicity detection kit (TaKaRa Biomedicals, Tokyo, Japan). Cells were exposed according to the experiment design. The conditioned medium of the UVB-exposed cells was collected for LDH measurement. The substrate mix solution was added to aliquots of the supernatant medium at 1:1 ratio and incubated at 37° C. for 30 min under light protected conditions. Then, the absorbance was determined at 490 nm immediately after the addition of 1N HCl stop solution (final concentration, 0.2 N) using a microplate reader (Tacan Austria GmbH, Salzburg, Austria). Control was prepared with 0.1% (w/v) Triton X-100, which was defined as 100% LDH release.\n(§2) Based on the above results, effects of (2′S)-columbianetin on the viability and injury degree of UVB-exposed keratinocyte cells were examined at incubation for 24 h after UVB exposure of 40 mJ/cm^2."}, "[3]": {"test_system": "HaCaT cells", "assay": "Microscopic image of morphological changes in UVB-exposed cells", "conditions": "UVB 40 mJ/cm^2, microscopic image, FIG. 2C", "description": "as §1\nTo determine the appropriate energy level of UVB irradiation, the cytotoxicity of keratinocytes cultured from the above was determined by comparing the data obtained from MTT and LDH leakage for 6, 12, 24 and 48 h after UVB irradiation from 10 to 3000 mJ/cm^2. Exposure of cells to UVB energy induced significant decrease of cell viability (FIG. 1A) and increase of LDH release in a UVB exposure-dependent manner (FIG. 1B). Morphological changes in keratinocyte cells for different incubation periods (6, 12, 24 and 48 h) after UVB exposure of cells in a range of 10-3000 mJ/cm^2 were compared (FIG. 1C). A larger proportion of cells were swelling and dying in a dose- and time-dependent manner.\nas §2"}, "[4]": {"test_system": "intracellular ROS", "assay": "Intracellular ROS generation (DCFH-DA) in UVB-exposed cells", "conditions": "UVB 40 mJ/cm^2, treated 24 h, FIG. 3", "description": "as §1\nThe levels of intracellular ROS generation were detected using the oxidation sensitive dye 2′,7′-dichlorofluorescin diacetate (DCFH-DA). The cells were grown in a 96-well microplate with fluorescence for 24 h and followed by exposure to UVB (40 mJ/cm^2). The exposed cells were treated with (2′S)-columbianetin for 24 h and then they were loaded with 20 μM of DCFH-DA in PBS and incubated for 30 min in the dark at 37° C. under a humidified atmosphere with 5% CO2. Finally, cells were washed twice with PBS and the fluorescence of DCF in PBS was detected at an excitation wavelength of 485 nm and an emission wavelength of 535 nm using a fluorescence microplate reader (Tacan Austria GmbH, Salzburg, Austria) and the result is shown in FIG. 3."}, "[5]": {"test_system": "genomic DNA of keratinocyte cells", "assay": "Genomic DNA extraction and DNA oxidation, agarose gel", "conditions": "UVB-stimulated cells, FIG. 4", "description": "as §1\nGenomic DNA was isolated from keratinocyte cells using standard phenol/proteinase K procedure with slight modifications (J. Sambrook, D. W. Russell, Molecular Cloning: A Laboratory Manual; 3rd ed. Cold Spring Harbor Laboratory Press: Cold Spring Harbor. 2001). In brief, UVB-stimulated cells in the presence and absence of sample were washed twice with PBS and collected using 1 mL of PBS containing 10 mM EDTA. After centrifugation at 13,400×g for 5 min at 4° C., the deposited cells were resuspended in 410 μL of solution including RNase A (0.5 mg/mL), proteinase K (10 mg/mL), SDS (10%) and NaOAC (0.2 M). After that, this mixture was incubated at 37° C. for 30 min and 55° C. for 1 h. Following incubation, phenol:chloroform:iso-amylalcohol (25:24:1) was added at 1:1 ratio, after which the mixture was centrifuged at 13,400×g for 5 min at 4° C. […] Purity of DNA was determined by ratio of absorbance at 260 and 280 nm using spectrophotometric assay. […]"}, "[6]": {"test_system": "MMP-2 (gelatinase A)", "assay": "RT-PCR and Western blot, MMP-2 expression in UVB-exposed cells", "conditions": "HaCaT, UVB 40 mJ/cm^2, RT-PCR and Western blot, FIG. 5", "description": "as §1\n(§3) Total cellular RNA was isolated using Trizol reagent (Invitrogen Co., CA, USA). The 2 μg of isolated RNA was reverse transcribed into cDNA using oligo-(dT) primer (Promega, Madison, Wis., USA). […] Finally, the relative band densities were determined using a LAS3000® Luminescent image analyzer (Fujifilm Life Science, Tokyo, Japan).\n(§4) Whole cells were lysed in RIPA buffer (Sigma-Aldrich Corp., St. Louis, USA) at 4° C. for 30 min. After centrifugation, total protein amount of cell lysates were determined using Lowry method (BioRad Laboratories, Hercules, Calif.). […] Bound antibodies were detected by horseradish peroxidase-conjugated secondary antibodies for 1 h at room temperature and the immunoreactive proteins were detected using a chemiluminescent ECL assay kit (Amersham Pharmacia Biosciences, England, UK) according to the manufacturer's instructions. […]"}, "[7]": {"test_system": "MMP-9 (gelatinase B)", "assay": "RT-PCR and Western blot, MMP-9 expression in UVB-exposed cells", "conditions": "HaCaT, UVB 40 mJ/cm^2, RT-PCR and Western blot, FIG. 5", "description": "as §1, §3, §4"}, "[8]": {"test_system": "TIMP-1", "assay": "RT-PCR and Western blot, TIMP-1 expression in UVB-exposed cells", "conditions": "HaCaT, UVB 40 mJ/cm^2, FIG. 5", "description": "as §1, §3, §4"}, "[9]": {"test_system": "TIMP-2", "assay": "RT-PCR and Western blot, TIMP-2 expression in UVB-exposed cells", "conditions": "HaCaT, UVB 40 mJ/cm^2, FIG. 5", "description": "as §1, §3, §4"}, "[10]": {"test_system": "c-Jun N-terminal kinase (JNK)", "assay": "Western blot, phosphorylated JNK in UVB-exposed cells", "conditions": "UVB-exposed HaCaT cells, FIG. 6", "description": "as §1, §4"}, "[11]": {"test_system": "p38 MAPK", "assay": "Western blot, phosphorylated p38 MAPK in UVB-exposed cells", "conditions": "UVB-exposed HaCaT cells, FIG. 6", "description": "as §1, §4"}, "[12]": {"test_system": "extracellular signal-related kinase (ERK1/2)", "assay": "Western blot, phosphorylated ERK1/2 in UVB-exposed cells", "conditions": "UVB-exposed HaCaT cells, FIG. 6", "description": "as §1, §4"}, "[13]": {"test_system": "c-fos", "assay": "Western blot, AP-1 activation (c-fos) in UVB-exposed cells", "conditions": "UVB-exposed HaCaT cells, FIG. 7A", "description": "as §1, §4"}, "[14]": {"test_system": "p53", "assay": "Western blot, phosphorylated p53 in UVB-exposed cells", "conditions": "UVB-exposed HaCaT cells, FIG. 7B", "description": "as §1, §4"}, "[15]": {"test_system": "Bax", "assay": "Western blot, Bax in UVB-exposed cells", "conditions": "UVB-exposed HaCaT cells, FIG. 7B", "description": "as §1, §4"}}, "data": [{"smiles": "CC(C)(O)C1Cc2c(ccc3ccc(=O)oc23)O1", "note": "(stereo not drawn) [(2′S)-columbianetin]", "values": [{"measurement": "cell viability (MTT)", "setting": "[1]", "value": "substantially increased cell viability in a dose-dependent manner"}, {"measurement": "degree of cell injury (LDH release)", "setting": "[2]", "value": "substantially decreased the degree of cell injury by UVB exposure in a dose-dependent manner"}, {"measurement": "morphological changes in cells due to UV", "setting": "[3]", "value": "effectively suppressed the morphological changes in cells"}, {"measurement": "DCF fluorescence intensity (intracellular ROS)", "setting": "[4]", "value": "significantly reduced DCF fluorescence intensity in a dose-dependent manner"}, {"measurement": "protective effect on DNA damage due to UVB exposure", "setting": "[5]", "value": "adequate protective effect on DNA damage"}, {"measurement": "expression level of UVB-mediated gelatinase A (MMP-2) gene and protein", "setting": "[6]", "value": "reduced by (2′S)-columbianetin in a dose-dependent manner"}, {"measurement": "expression level of UVB-mediated gelatinase B (MMP-9) gene and protein", "setting": "[7]", "value": "reduced by (2′S)-columbianetin in a dose-dependent manner"}, {"measurement": "TIMP-1 expression", "setting": "[8]", "value": "dose-dependently enhanced"}, {"measurement": "TIMP-2 expression", "setting": "[9]", "value": "dose-dependently enhanced"}, {"measurement": "expression of phosphorylated JNK protein", "setting": "[10]", "value": "effectively decreased the regulations"}, {"measurement": "expression of phosphorylated p38 MAPK protein", "setting": "[11]", "value": "effectively decreased the regulations"}, {"measurement": "expression of phosphorylated ERK1/2 protein", "setting": "[12]", "value": "effectively decreased the regulations"}, {"measurement": "activated nuclear transcription factor c-fos", "setting": "[13]", "value": "significantly down-regulated"}, {"measurement": "expression level of phosphorylated p53", "setting": "[14]", "value": "the increments were suppressed"}, {"measurement": "expression level of Bax protein", "setting": "[15]", "value": "the increments were suppressed"}]}]}
